Test results: patent US20240327381A1, “Compounds and Compositions for Selective Degradation of Engineered Proteins” (Celgene Corporation, priority 2023, published 2024)

Experiments:
[1] = biological target: T1, IKZF1 ZNF2_ZNF3 Q1F degron-tagged CD19 CAR (Homo sapiens, UniProt Q13422, Q146F); assay: Degradation of Q1F degron-tagged CD19 CAR in Jurkat cells (flow cytometry of CAR levels); assay type: cell-based; details: for DC50: Jurkat cells expressing CD19 CAR tagged with IKZF1 ZNF2_ZNF3 Q1F, 18 hours at 37° C., CAR levels normalized to untreated cells, read-out: Q1F Jurkat IC50; for Dmax: Ymax is the % protein degraded, Jurkat cells expressing Q1F degron-tagged CD19 CAR, 18 hours, read-out: Q1F Jurkat-YMax
T1 construct: ZNF2_ZNF3 Q1F degron (GERPFFCNQCGASFTQKGNLLRHIKLHSGEKPFKCHLCNYACRRRDALTGHLRTHS); fused on or other part: anti-CD19 scFv, CD28 transmembrane domain, 4-1BB costimulatory domain, CD3 zeta signaling domain (the CAR that carries the degron), and Nluc
From the text: Q1F degron-targeting compounds were screened in Jurkat cells engineered to express a IKZF1 ZNF2_ZNF3 Q1F. The cell line was generated with lentiviral vectors containing CD19 CARs tagged with IKZF1 ZNF2_ZNF3 QIF Nluc, which were transduced into Jurkat cells. The CD19 CAR comprised an anti-CD19 scFv, a CD28 transmembrane domain, a 4-1BB costimulatory domain, a CD3ζ signaling domain, and a ZNF2_ZNF3 Q1F degron (GERPFFCNQCGASFTQKGNLLRHIKLHSGEKPFKCHLCNYACRRRDALTGHLRTHS; SEQ ID NO: 1; Q1F substitution underlined). Transduced cells were treated with a titration of each small molecule or no drug and then incubated at 37° C. for 18 hours. Cells were washed and stained with appropriate staining reagent to measure CAR levels. The cells were incubated at 4° C. in the staining reagents for 20 mins and then washed 3 times before being read on the flow cytometer. CAR levels were normalized to cells that had not been treated with drug. EC50 and Ymin values were calculated using the resulting titration curve. This identified small molecules that potently degraded the Q1F degron-tagged CARs (Table 1).
(§1) To determine the EC50 value of a compound for the degradation of a given substrate (concentration of compound that achieves half the maximum degradation observed), a four-parameter logistic model (sigmoidal dose-response model) (FIT=(A+{(B−A)/1+[(C/x)D]})) where C is the inflection point (EC50), D is the […], and A and B are the low and high limits of the fit, respectively) was used. All substrate degradation curves were processed and evaluated using ActivityBase (IDBS), a data analysis software package. Ymax is the % protein degraded (Ymin=100−Ymax and is minimum percent protein remaining).

Helios = biological target: T2, Helios (Homo sapiens, UniProt Q9UKS7); assay: Helios degradation in Jurkat/Helios/HiBit cells (Nano-Glo luminescence); assay type: cell-based; details: 18 hr, read-out: Helios Jurkat Hibit IC50
T2 construct: endogenous in cells; host or cells: Jurkat cells, CRISPR/Cas9 knock-in of HiBit at the IKZF2 locus
Protocol: For Helios, a stable Jurkat cell line was engineered using CRISPR/Cas9 to insert an in-frame HiBit tag into the carboxy-terminal reading frame of the IKZF2 gene. The sequence of human Helios is shown below:
Test compounds were transferred to 1536 well plates using an acoustic dispenser, and Jurkat/Helios/HiBit cells in DMEM/10% FCS were plated at 10,000 cells/well in a final volume of 5 μL. Cells were incubated at 37 C, 95% RH for 18 hr. Luciferase activity was measured by adding 2 μL/well of Nano-Glo reagent (Promega), incubating at RT for 30 min, and reading luminescence on a microtiter plate reader.
as §1

T2 sequence (Q9UKS7 whole entry): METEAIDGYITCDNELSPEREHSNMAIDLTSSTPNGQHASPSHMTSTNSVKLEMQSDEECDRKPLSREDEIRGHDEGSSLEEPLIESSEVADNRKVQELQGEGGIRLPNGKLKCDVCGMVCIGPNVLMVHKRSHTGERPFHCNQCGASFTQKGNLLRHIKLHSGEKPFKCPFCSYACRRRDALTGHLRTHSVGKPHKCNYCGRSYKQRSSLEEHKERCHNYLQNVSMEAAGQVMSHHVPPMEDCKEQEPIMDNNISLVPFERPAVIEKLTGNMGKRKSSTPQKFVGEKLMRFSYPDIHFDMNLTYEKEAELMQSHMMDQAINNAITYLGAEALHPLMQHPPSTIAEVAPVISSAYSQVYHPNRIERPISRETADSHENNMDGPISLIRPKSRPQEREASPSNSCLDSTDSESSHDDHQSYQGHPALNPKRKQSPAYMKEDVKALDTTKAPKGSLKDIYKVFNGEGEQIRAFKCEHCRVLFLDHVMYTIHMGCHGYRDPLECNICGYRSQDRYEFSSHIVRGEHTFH
T2 sequence (Q96SW2 whole entry, further chain): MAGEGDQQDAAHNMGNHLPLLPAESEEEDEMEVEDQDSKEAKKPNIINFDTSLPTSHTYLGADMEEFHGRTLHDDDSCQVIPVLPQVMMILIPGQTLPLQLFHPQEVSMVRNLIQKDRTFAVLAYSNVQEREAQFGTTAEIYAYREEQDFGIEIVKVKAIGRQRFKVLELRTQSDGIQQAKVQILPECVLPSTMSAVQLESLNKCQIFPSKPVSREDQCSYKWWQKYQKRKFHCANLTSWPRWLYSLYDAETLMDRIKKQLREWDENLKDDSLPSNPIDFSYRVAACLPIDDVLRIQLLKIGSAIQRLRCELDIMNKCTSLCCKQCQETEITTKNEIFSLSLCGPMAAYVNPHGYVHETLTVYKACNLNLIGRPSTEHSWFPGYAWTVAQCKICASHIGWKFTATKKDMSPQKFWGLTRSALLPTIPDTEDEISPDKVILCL
T2 sequence (Q16531 whole entry partner): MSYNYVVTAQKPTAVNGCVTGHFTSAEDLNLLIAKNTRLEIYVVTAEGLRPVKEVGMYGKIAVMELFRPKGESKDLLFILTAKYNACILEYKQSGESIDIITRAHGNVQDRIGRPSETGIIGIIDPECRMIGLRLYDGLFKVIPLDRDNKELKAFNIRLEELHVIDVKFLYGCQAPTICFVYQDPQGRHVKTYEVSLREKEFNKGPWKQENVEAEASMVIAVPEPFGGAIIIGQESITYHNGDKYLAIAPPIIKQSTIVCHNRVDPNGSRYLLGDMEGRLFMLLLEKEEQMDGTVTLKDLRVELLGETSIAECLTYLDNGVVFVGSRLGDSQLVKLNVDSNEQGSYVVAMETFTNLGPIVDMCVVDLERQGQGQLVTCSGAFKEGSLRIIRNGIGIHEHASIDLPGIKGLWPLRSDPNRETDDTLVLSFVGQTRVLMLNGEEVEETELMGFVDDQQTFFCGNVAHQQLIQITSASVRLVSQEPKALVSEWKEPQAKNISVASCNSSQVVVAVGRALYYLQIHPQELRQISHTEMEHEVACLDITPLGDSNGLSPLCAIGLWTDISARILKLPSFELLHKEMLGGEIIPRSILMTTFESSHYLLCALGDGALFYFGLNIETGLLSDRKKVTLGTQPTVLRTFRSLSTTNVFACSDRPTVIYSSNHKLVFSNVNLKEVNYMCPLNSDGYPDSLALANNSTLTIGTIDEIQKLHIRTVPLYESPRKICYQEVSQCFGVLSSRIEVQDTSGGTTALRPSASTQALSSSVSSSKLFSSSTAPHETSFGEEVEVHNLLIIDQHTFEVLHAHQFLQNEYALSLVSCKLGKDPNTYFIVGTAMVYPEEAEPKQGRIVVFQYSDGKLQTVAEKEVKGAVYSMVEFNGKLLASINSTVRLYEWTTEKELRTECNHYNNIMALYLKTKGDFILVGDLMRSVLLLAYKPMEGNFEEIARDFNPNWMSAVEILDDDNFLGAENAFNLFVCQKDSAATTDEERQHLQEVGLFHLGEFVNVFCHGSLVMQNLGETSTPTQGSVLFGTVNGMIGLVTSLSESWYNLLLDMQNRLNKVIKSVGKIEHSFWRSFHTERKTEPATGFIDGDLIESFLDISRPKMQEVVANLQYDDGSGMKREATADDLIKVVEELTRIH
T1 sequence (Q13422 whole entry Q146F, the tested form may be a part): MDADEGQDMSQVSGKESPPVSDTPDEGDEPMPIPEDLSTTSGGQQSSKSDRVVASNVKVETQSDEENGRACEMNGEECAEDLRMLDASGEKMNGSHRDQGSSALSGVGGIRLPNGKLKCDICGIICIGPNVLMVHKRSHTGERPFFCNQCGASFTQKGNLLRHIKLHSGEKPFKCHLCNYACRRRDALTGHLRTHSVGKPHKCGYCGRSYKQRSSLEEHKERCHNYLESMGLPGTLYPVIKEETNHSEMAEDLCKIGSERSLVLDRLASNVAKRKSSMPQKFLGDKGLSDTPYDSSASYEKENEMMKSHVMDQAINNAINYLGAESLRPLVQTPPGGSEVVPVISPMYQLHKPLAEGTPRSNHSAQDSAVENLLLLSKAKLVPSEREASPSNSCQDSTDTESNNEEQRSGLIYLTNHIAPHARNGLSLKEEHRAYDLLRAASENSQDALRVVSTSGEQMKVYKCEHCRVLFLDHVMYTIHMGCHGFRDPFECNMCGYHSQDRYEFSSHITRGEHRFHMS

Molecule `C[C@@H](CO)CN1CCC(c2c(F)cc3c(c2F)CN(C2CCC(=O)NC2=O)C3=O)CC1` (mixture of isomers) [Compound 119, rac-3-(4,6-difluoro-5-(1-((R)-3-hydroxy-2-methylpropyl)piperidin-4-yl)-1-oxoisoindolin-2-yl)piperidine-2,6-dione] has a DC50 [1] of 8.65 nM, a Dmax [1] of 80.7% and a DC50 (Helios) of at least 10 µM.
`Cn1cncc1CN1CCC(c2c(F)cc3c(c2F)CN(C2CCC(=O)NC2=O)C3=O)CC1` (centres unmarked) [Compound 1, 3-(4,6-difluoro-5-(1-((1-methyl-1H-imidazol-5-yl)methyl)piperidin-4-yl)-1-oxoisoindolin-2-yl)piperidine-2,6-dione] gave a DC50 [1] of 10.4 nM, a Dmax [1] of 85.3% and a DC50 (Helios) of at least 10 µM.
Work on `O=C1CCC(N2Cc3c(cc(F)c(C4CCN(Cc5ccc(F)cc5)CC4)c3F)C2=O)C(=O)N1` (centres unmarked) [Compound 2, 3-(4,6-difluoro-5-(1-(4-fluorobenzyl)piperidin-4-yl)-1-oxoisoindolin-2-yl)piperidine-2,6-dione] yielded a DC50 [1] of 1.43 nM, a Dmax [1] of 88.8% and a DC50 (Helios) of at least 10 µM.
`O=C1CCC(N2Cc3c(cc(F)c(C4CCN(C5CCC5)CC4)c3F)C2=O)C(=O)N1` (centres unmarked) [Compound 3, 3-(5-(1-cyclobutylpiperidin-4-yl)-4,6-difluoro-1-oxoisoindolin-2-yl)piperidine-2,6-dione] gave a DC50 [1] of 4.37 nM, a Dmax [1] of 78.7% and a DC50 (Helios) of at least 10 µM.
With `Cc1cc(CN2CCC(c3c(F)cc4c(c3F)CN(C3CCC(=O)NC3=O)C4=O)CC2)on1` (centres unmarked) [Compound 4, 3-(4,6-difluoro-5-(1-((3-methylisoxazol-5-yl)methyl)piperidin-4-yl)-1-oxoisoindolin-2-yl)piperidine-2,6-dione] the DC50 [1] was 105 nM, the Dmax [1] was 82.3% and the DC50 (Helios) was at least 10 µM.
Molecule `O=C1CCC(N2Cc3c(cc(F)c(C4CCN(Cc5ccc(-c6ccccc6)o5)CC4)c3F)C2=O)C(=O)N1` (centres unmarked) [Compound 5, 3-(4,6-difluoro-1-oxo-5-(1-((5-phenylfuran-2-yl)methyl)piperidin-4-yl)isoindolin-2-yl)piperidine-2,6-dione] has a DC50 [1] of 5.7 nM, a Dmax [1] of 85.8% and a DC50 (Helios) of at least 10 µM.
With `O=C1CCC(N2Cc3c(cc(F)c(C4CCN(Cc5ccsc5)CC4)c3F)C2=O)C(=O)N1` (centres unmarked) [Compound 6, 3-(4,6-difluoro-1-oxo-5-(1-(thiophen-3-ylmethyl)piperidin-4-yl)isoindolin-2-yl)piperidine-2,6-dione] the DC50 [1] was 5 nM, the Dmax [1] was 89.1% and the DC50 (Helios) was at least 10 µM.
Work on `O=C1CCC(N2Cc3c(cc(F)c(C4CCN(CC5CCOC5)CC4)c3F)C2=O)C(=O)N1` (centres unmarked) [Compound 7, 3-(4,6-difluoro-1-oxo-5-(1-((tetrahydrofuran-3-yl)methyl)piperidin-4-yl)isoindolin-2-yl)piperidine-2,6-dione] yielded a DC50 [1] of 0.265 nM, a Dmax [1] of 86.2% and a DC50 (Helios) of at least 10 µM.
For `O=C1CCC(N2Cc3c(cc(F)c(C4CCN(Cc5ccc(-n6ccnc6)cc5)CC4)c3F)C2=O)C(=O)N1` (centres unmarked) [Compound 8, 3-(5-(1-(4-(1H-imidazol-1-yl)benzyl)piperidin-4-yl)-4,6-difluoro-1-oxoisoindolin-2-yl)piperidine-2,6-dione], the DC50 [1] was 4.97 nM, the Dmax [1] was 91.7% and the DC50 (Helios) was at least 10 µM.
For `O=C1CCC(N2Cc3c(cc(F)c(C4CCN(Cc5ccnn5-c5ccccc5)CC4)c3F)C2=O)C(=O)N1` (centres unmarked) [Compound 9, 3-(4,6-difluoro-1-oxo-5-(1-((1-phenyl-1H-pyrazol-5-yl)methyl)piperidin-4-yl)isoindolin-2-yl)piperidine-2,6-dione], the DC50 [1] was 2.74 nM, the Dmax [1] was 89.1% and the DC50 (Helios) was at least 10 µM.
Work on `O=C1CCC(N2Cc3c(cc(F)c(C4CCN(CC(c5ccccc5)c5ccccc5)CC4)c3F)C2=O)C(=O)N1` (centres unmarked) [Compound 10, 3-(5-(1-(2,2-diphenylethyl)piperidin-4-yl)-4,6-difluoro-1-oxoisoindolin-2-yl)piperidine-2,6-dione] yielded a DC50 [1] of 0.202 nM, a Dmax [1] of 90.7% and a DC50 (Helios) of at least 10 µM.
With `O=C1CCC(N2Cc3c(cc(F)c(C4(O)CCN(Cc5ccc6ncsc6c5)CC4)c3F)C2=O)C(=O)N1` (centres unmarked) [Compound 12] the DC50 [1] was 4.33 nM, the Dmax [1] was 83.4% and the DC50 (Helios) was at least 10 µM.
`Cc1cc(Br)cnc1CN1CCC(O)(c2c(F)cc3c(c2F)CN(C2CCC(=O)NC2=O)C3=O)CC1` (centres unmarked) [Compound 13, 3-(5-(1-((5-bromo-3-methylpyridin-2-yl)methyl)-4-hydroxypiperidin-4-yl)-4,6-difluoro-1-oxoisoindolin-2-yl)piperidine-2,6-dione] gave a DC50 [1] of 86 nM, a Dmax [1] of 62.4% and a DC50 (Helios) of at least 10 µM.
Work on `O=C1CCC(N2Cc3c(cc(F)c(C4(O)CCN(Cc5coc(-c6cccs6)n5)CC4)c3F)C2=O)C(=O)N1` (centres unmarked) [Compound 14, 3-(4,6-difluoro-5-(4-hydroxy-1-((2-(thiophen-2-yl)oxazol-4-yl)methyl)piperidin-4-yl)-1-oxoisoindolin-2-yl)piperidine-2,6-dione] yielded a DC50 [1] of 22.4 nM, a Dmax [1] of 66.9% and a DC50 (Helios) of at least 10 µM.
Molecule `O=C1CCC(N2Cc3c(cc(F)c(C4(O)CCN(Cc5ccc(C(F)(F)F)cc5F)CC4)c3F)C2=O)C(=O)N1` (centres unmarked) [Compound 20, 3-(4,6-difluoro-5-(1-(2-fluoro-4-(trifluoromethyl)benzyl)-4-hydroxypiperidin-4-yl)-1-oxoisoindolin-2-yl)piperidine-2,6-dione] has a DC50 [1] of 33.3 nM and a Dmax [1] of 77.1%.
`O=C1CCC(N2Cc3c(cc(F)c(C4(O)CCN(Cc5cc(F)c(C(F)(F)F)cc5F)CC4)c3F)C2=O)C(=O)N1` (centres unmarked) [Compound 21, 3-(5-(1-(2,5-difluoro-4-(trifluoromethyl)benzyl)-4-hydroxypiperidin-4-yl)-4,6-difluoro-1-oxoisoindolin-2-yl)piperidine-2,6-dione] showed a DC50 [1] of 40.2 nM and a Dmax [1] of 70.7%.
`COc1ccc(-n2cccn2)c(CN2CCC(O)(c3c(F)cc4c(c3F)CN(C3CCC(=O)NC3=O)C4=O)CC2)c1` (centres unmarked) [Compound 23, 3-(4,6-difluoro-5-(4-hydroxy-1-(5-methoxy-2-(1H-pyrazol-1-yl)benzyl)piperidin-4-yl)-1-oxoisoindolin-2-yl)piperidine-2,6-dione] showed a DC50 [1] of 279 nM and a Dmax [1] of 51.6%.
`O=C1CCC(N2Cc3c(cc(F)c(C4(O)CCN(Cc5ncccc5Br)CC4)c3F)C2=O)C(=O)N1` (centres unmarked) [Compound 24, 3-(5-(1-((3-bromopyridin-2-yl)methyl)-4-hydroxypiperidin-4-yl)-4,6-difluoro-1-oxoisoindolin-2-yl)piperidine-2,6-dione] was tested, and the DC50 [1] was 101 nM and the Dmax [1] was 57.3%.
`COc1ccnc(CN2CCC(O)(c3c(F)cc4c(c3F)CN(C3CCC(=O)NC3=O)C4=O)CC2)c1` (centres unmarked) [Compound 25, 3-(4,6-difluoro-5-(4-hydroxy-1-((4-methoxypyridin-2-yl)methyl)piperidin-4-yl)-1-oxoisoindolin-2-yl)piperidine-2,6-dione] gave a DC50 [1] of 48.2 nM and a Dmax [1] of 67.4%.
`Cc1ccc(CN2CCC(O)(c3c(F)cc4c(c3F)CN(C3CCC(=O)NC3=O)C4=O)CC2)cc1` (centres unmarked) [Compound 27, 3-(4,6-difluoro-5-(4-hydroxy-1-(4-methylbenzyl)piperidin-4-yl)-1-oxoisoindolin-2-yl)piperidine-2,6-dione] was tested, and the DC50 [1] was 17.2 nM and the Dmax [1] was 76.2%.
With `CN(CCN1CCC(O)(c2c(F)cc3c(c2F)CN(C2CCC(=O)NC2=O)C3=O)CC1)Cc1ccccc1` (centres unmarked) [Compound 30, 3-(5-(1-(2-(benzyl(methyl)amino)ethyl)-4-hydroxypiperidin-4-yl)-4,6-difluoro-1-oxoisoindolin-2-yl)piperidine-2,6-dione] the DC50 [1] was 192 nM and the Dmax [1] was 57.8%.
